{"source": "patent US10350158B2", "about": "“2′ fluoro-modified RNAs as immunostimulators” (DUKE UNIVERSITY, priority 2013, dated 2019)", "key": {"WM266-4 cells [1]": {"tested_on": "WM266-4 cells", "experiment": "Apoptosis / cell death by Annexin V-PE and 7-AAD flow cytometry", "format": "cell-based, human", "conditions": "aptamer treated with bacterial alkaline phosphatase (BAP), 0.125 μg/ml", "experimental": "For the intracellular delivery of immune stimulatory RNAs, RNAs were transfected with the DharmaFECT® Duo liposomal transfection reagent (Thermo Scientific, Waltham, Mass.) at a transfection reagent (μl):RNA (μg) ratio of 3.75:1, according to the manufacturer's instructions. Unless otherwise stated, for the induction of innate immune responses and apoptosis, immune stimulatory RNAs (500 ng/ml) were transfected into 50 to 70% confluent cells. Cells were incubated with an RNA-transfection agent complex for 5 h, followed by replenishment with fresh culture medium. […]\n(§1) Growth inhibition relative to untreated cells was quantified at 72 h after RNA transfection using an MTT Cell Proliferation Assay Kit (Cayman Chemicals, Ann Arbor, Mich.), according to the manufacturer's instructions. The percent growth inhibition was calculated by using the following equation: % growth inhibition=([O.D.]untreated−[O.D.]treated)/[O.D.]untreated×100. The induction of cell death was measured 48 h after RNA transfection by flow cytometry after staining with Annexin V-PE and 7-Aminoactinomycin D (7-AAD) using the PE Annexin V Apoptosis Detection Kit I (BD Biosciences, San Jose, Calif.) and analyzed using the CellQuest software (BD Biosciences)."}, "IFNβ": {"tested_on": "IFNβ", "experiment": "IFNβ ELISA of transfected melanoma cell supernatants", "format": "cell-based, human", "experimental": "For the intracellular delivery of immune stimulatory RNAs, RNAs were transfected with the DharmaFECT® Duo liposomal transfection reagent (Thermo Scientific, Waltham, Mass.) at a transfection reagent (μl):RNA (μg) ratio of 3.75:1, according to the manufacturer's instructions. Unless otherwise stated, for the induction of innate immune responses and apoptosis, immune stimulatory RNAs (500 ng/ml) were transfected into 50 to 70% confluent cells. Cells were incubated with an RNA-transfection agent complex for 5 h, followed by replenishment with fresh culture medium. To electroporate cells, 1×10^5 cells suspended in 200 μl Opti-MEM I (Invitrogen) were mixed with 1 μg of immune stimulatory RNAs or 5 μg of 2'Fluoro pyrimidine ribonucleoside triphosphate in 2-mm cuvettes and were electroporated at 300 V for 500 μs using an Electro Square Porator ECM 830 (BTX, San Diego, Calif.). For the knockdown of RNA-sensing PRRs, cells were transfected with PRR-specific siRNAs (25 nM) twice at 2-day intervals using DharmaFECT®-1 (Thermo Scientific). At 5 h after the second siRNA transfection, cells were harvested, replated into a 96-well plate and incubated overnight. Cells were then treated with immune stimulatory RNA transfections. Staurosporine (2 μM) (Sigma, St Louis, Mo.) and recombinant human IFNβ (20 ng/ml) (PeproTech, Rocky Hill, N.J.) were used as positive controls of anti-melanoma cytotoxicity. […] (100 ng/ml) (eBioscience, San Diego, Calif.) was added directly to the growth media of cells to neutralize IFNβ. Cells were transfected with RNAs as described above. At 24 hours after RNA transfection, culture supernatants were collected and stored at -80° C. for later analyses. The production of human IL-8 was analyzed with a human IL-8 ELISA kit (eBioscience). IFN-β production was determined with a human IFN-β ELISA kit (PBL Biomedical Laboratories, Piscataway, N.J.) by following the manufacturer's instructions."}, "human TLR3": {"target": "T1, human TLR3 (Homo sapiens, UniProt O15455)", "T1 construct": "host or cells: HEK293 (HEK-hTLR3-NFκB/SEAP)", "T1 sequence (O15455 24-904)": "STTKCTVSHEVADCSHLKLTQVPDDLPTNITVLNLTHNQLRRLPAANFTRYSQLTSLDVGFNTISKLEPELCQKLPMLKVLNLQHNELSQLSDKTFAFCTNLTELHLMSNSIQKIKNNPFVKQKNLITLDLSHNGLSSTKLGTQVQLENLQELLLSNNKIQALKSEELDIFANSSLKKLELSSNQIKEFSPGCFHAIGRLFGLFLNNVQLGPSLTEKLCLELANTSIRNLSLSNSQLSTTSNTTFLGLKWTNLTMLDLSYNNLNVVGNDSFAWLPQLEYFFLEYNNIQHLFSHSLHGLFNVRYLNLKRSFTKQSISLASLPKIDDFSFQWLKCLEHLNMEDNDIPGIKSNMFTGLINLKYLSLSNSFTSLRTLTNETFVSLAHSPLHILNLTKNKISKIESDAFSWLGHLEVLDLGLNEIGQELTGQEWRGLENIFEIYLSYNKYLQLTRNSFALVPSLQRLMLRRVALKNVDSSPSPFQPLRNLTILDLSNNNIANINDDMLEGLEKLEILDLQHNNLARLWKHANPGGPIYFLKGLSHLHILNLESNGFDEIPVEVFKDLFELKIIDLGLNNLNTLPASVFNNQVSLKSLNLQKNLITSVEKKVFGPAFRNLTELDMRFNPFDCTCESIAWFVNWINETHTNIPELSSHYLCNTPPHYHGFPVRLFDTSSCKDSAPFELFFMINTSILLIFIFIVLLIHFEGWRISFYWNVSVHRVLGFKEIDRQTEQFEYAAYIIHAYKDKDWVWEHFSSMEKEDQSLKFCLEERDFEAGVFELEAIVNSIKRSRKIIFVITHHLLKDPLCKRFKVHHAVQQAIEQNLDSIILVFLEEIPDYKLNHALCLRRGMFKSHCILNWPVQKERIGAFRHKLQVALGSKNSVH", "experiment": "HEK-hTLR3-NFκB/SEAP reporter assay", "format": "cell-based", "conditions": "QUANTI-BLUE", "experimental": "(§2) The human TLR3 reporter cell, HEK-hTLR3-NFκB/SEAP was purchased from Invivogen. These cells were stably co-transfected with the human TLR3 gene and an inducible SEAP (secreted embryonic alkaline phosphatase) reporter gene into HEK293 cells. The SEAP gene is placed under the control of NF-κB and AP-1. […] SEAP gene expression was measured using the SEAP detection media QUANTI-BLUE (Invivogen), according to the manufacturer's instructions. FIG. 3B is a graph showing that TLR7 is not stimulated by the ssRNAs. Human TLR7-expressing HEK293 cells were kindly provided by Dr. Todd Brennan (Duke University, Durham, N.C.). Treatment with R848 but not with polyI:C, polyI:C-DF and 5′ppp 2′F 10F-DF complexes stimulated HEK-TLR7 cells to produce the inflammatory cytokine IL-8. The data represent the mean of two experiments. Error bars represent the S.D."}, "Human TLR7": {"target": "T2, Human TLR7 (Homo sapiens, UniProt Q9NYK1)", "T2 construct": "expressed in transfected cells; host or cells: HEK293 (HEK-TLR7), gift of Dr. Todd Brennan, Duke University", "T2 sequence (Q9NYK1 27-1049)": "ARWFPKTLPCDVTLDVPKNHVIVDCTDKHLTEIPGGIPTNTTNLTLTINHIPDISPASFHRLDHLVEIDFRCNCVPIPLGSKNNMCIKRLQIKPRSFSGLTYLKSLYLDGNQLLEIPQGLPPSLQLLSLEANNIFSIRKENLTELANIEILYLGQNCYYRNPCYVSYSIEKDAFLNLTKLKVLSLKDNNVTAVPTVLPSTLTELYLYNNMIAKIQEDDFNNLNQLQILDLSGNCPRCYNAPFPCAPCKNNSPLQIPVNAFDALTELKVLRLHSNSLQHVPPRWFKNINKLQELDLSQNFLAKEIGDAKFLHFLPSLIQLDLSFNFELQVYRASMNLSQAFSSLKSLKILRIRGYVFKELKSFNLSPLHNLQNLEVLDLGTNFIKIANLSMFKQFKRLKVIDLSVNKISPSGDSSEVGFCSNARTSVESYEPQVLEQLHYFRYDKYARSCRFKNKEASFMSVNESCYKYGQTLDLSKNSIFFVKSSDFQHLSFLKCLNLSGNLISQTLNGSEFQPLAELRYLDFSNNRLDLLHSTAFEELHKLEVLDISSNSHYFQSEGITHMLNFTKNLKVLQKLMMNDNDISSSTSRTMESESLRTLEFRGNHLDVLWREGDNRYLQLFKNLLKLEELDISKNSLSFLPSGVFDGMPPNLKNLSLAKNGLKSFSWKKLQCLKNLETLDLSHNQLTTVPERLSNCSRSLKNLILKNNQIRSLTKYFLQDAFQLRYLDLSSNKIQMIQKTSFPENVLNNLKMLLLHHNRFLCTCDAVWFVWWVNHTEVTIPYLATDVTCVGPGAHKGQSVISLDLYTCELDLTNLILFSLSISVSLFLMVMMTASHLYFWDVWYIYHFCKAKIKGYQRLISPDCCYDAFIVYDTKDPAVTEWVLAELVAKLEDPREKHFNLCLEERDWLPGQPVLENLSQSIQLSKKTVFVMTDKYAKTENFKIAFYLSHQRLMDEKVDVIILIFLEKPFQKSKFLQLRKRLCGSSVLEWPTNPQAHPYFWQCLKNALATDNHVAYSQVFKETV", "experiment": "IL-8 production by human TLR7-expressing HEK293 cells", "format": "cell-based", "experimental": "as §2"}, "RIG-I, MDA-5, and PKR": {"tested_on": "RIG-I, MDA-5, and PKR", "experiment": "Western blot of RNA-sensing PRR expression after transfection", "format": "cell-based, human", "conditions": "24 hours after treatment", "experimental": "FIG. 2A is a set of FACS plots showing induction of apoptosis. WM266-4 cells were incubated with either liposome (DF) alone or 5′ppp 2′F 10F-liposome complex (10F/DF). At 5 h after incubation, cells were replenished with fresh culture medium. Cells were then incubated for an additional 48 hours, harvested and analyzed for cell death. FIG. 2B is a set of Western blots showing activation of caspases and PARP after transfection. WM266-4 cells were either mock-treated, treated with the 5′ppp 2′F 10F without the transfection reagent, or with the 5′ppp 2′F 10E-transfection reagent complex at the indicated concentrations (1 μg/ml or 0.5 μg/ml). The activation of caspase-7, -9, and PARP was assessed by western blot using antibodies specific to the activated (cleaved) proteins (24 h after treatment). Staurosporine-treated cells were used as a positive control. […] The growth inhibition was assessed at 72 h after electroporation. […] WM266-4 cells were treated as in (FIG. 2B), and the expression of RIG-I, MDA-5, and PKR was analyzed at 24 hours after treatments. […]\nCell lysates were prepared in 1×RIPA buffer (Sigma) in the presence of the complete protease inhibitor cocktail (Roche). […] When different proteins were sequentially detected on the same membrane, membranes were treated for 8 minutes with Restore Western Blot Stripping Buffer (Thermo Scientific), washed, blocked and probed again, as described above. […]"}, "WM266-4 cells [2]": {"tested_on": "WM266-4 cells", "format": "cell-based", "conditions": "MTT", "experimental": "For the intracellular delivery of immune stimulatory RNAs, RNAs were transfected with the DharmaFECT® Duo liposomal transfection reagent (Thermo Scientific, Waltham, Mass.) at a transfection reagent (μl):RNA (μg) ratio of 3.75:1, according to the manufacturer's instructions. Unless otherwise stated, for the induction of innate immune responses and apoptosis, immune stimulatory RNAs (500 ng/ml) were transfected into 50 to 70% confluent cells. Cells were incubated with an RNA-transfection agent complex for 5 h, followed by replenishment with fresh culture medium. To electroporate cells, 1×10^5 cells suspended in 200 μl Opti-MEM I (Invitrogen) were mixed with 1 μg of immune stimulatory RNAs or 5 μg of 2′Fluoro pyrimidine ribonucleoside triphosphate in 2-mm cuvettes and were electroporated at 300 V for 500 μs using an Electro Square Porator ECM 830 (BTX, San Diego, Calif.). For the knockdown of RNA-sensing PRRs, cells were transfected with PRR-specific siRNAs (25 nM) twice at 2-day intervals using DharmaFECT®-1 (Thermo Scientific). At 5 h after the second siRNA transfection, cells were harvested, replated into a 96-well plate and incubated overnight. Cells were then treated with immune stimulatory RNA transfections. Staurosporine (2 μM) (Sigma, St Louis, Mo.) and recombinant human IFNβ (20 ng/ml) (PeproTech, Rocky Hill, N.J.) were used as positive controls of anti-melanoma cytotoxicity. B18R (100 ng/ml) (eBioscience, San Diego, Calif.) was added directly to the growth media of cells to neutralize IFNβ.\nas §1"}}, "note": "Strand notation (5' to 3'): a small letter for the sugar, then the base; units joined by * are phosphorothioate-linked, units joined directly phosphodiester-linked; [ ] holds rarer units or linkages, { } end groups; capitals alone tell only the bases. {ppp} = triphosphate; r = 2'-OH (RNA); f = 2'-fluoro"}
{"molecule": "9.14T10: 5′ppp 2′F ssRNA aptamer, 60 nt, von Willebrand Factor-specific, SEQ ID NO: 6 ({ppp}-rGrGrGrArGrGfUrGrGrAfCrGrArAfCfUrGfCfCfCfUfCrArGfCfUrAfCfUfUfUfCrAfUrGfUfUrGfCfUrGrAfCrGfCrAfCrArGrAfCrGrAfCfUfCrGfCfUrG) [Aptamer 9.14T10]", "values": [{"measurement": "apoptosis after dephosphorylation of the aptamer", "setting": "WM266-4 cells [1]", "value": "partially prevented"}, {"measurement": "IFNβ production after dephosphorylation of the aptamer", "setting": "IFNβ; aptamer treated with bacterial alkaline phosphatase (BAP), 0.125 μg/ml", "value": "partially prevented"}]}
{"molecule": "CCOCc1nc2c(N)nc3ccccc3c2n1CC(C)(C)O", "note": "[Aptamer R848, R848]", "values": [{"measurement": "stimulation of TLR3 reporter cells (SEAP)", "setting": "human TLR3", "value": "not"}, {"measurement": "stimulation of HEK-TLR7 cells to produce IL-8", "setting": "Human TLR7", "value": "stimulated"}]}
{"molecule": "CN[C@@H]1C[C@H]2O[C@@](C)([C@@H]1OC)n1c3ccccc3c3c4c(c5c6ccccc6n2c5c31)C(=O)NC4", "note": "[staurosporine]", "values": [{"measurement": "induction of RIG-I, MDA-5 and PKR expression", "setting": "RIG-I, MDA-5, and PKR", "value": "not observed"}]}
{"molecule": "Motif 1: 29-mer 5′ppp-2′F ssRNA, 5′overhang stem-loop, first 29 nucleotides of 10F, SEQ ID NO: 14 ({ppp}-rGrGrGrArGrGrAfCrGrAfUrGfCrGrGfUrAfCfCfUrGrAfCrArGfCrAfUfC)", "values": [{"measurement": "cytotoxicity compared to 10F treatment, in words", "setting": "WM266-4 cells [2]", "value": "significantly lower"}, {"measurement": "IFNβ induction compared to 10F treatment, in words", "setting": "IFNβ; IFNβ ELISA", "value": "significantly lower"}]}
{"molecule": "Motif 1A: 37-mer extended variant of Motif 1 with longer 5′overhang, SEQ ID NO: 15 ({ppp}-rGrGrGfUrArArGfUrGrGrGrArGrGrAfCrGrAfUrGfCrGrGfUrAfCfCfUrGrAfCrArGfCrAfUfC)", "values": [{"measurement": "cytotoxic effect compared to treatment with Motif 1", "setting": "WM266-4 cells [2]", "value": "significantly decreased"}, {"measurement": "IFNβ production compared to treatment with Motif 1", "setting": "IFNβ; IFNβ ELISA", "value": "significantly decreased"}]}
{"molecule": "Motif 3: 30-mer extended variant of Motif 2, 3′overhang stem-loop, SEQ ID NO: 17 ({ppp}-rGrGrAfUrGfCrGrGfUrAfCfCfUrGrAfCrArGfCrAfUfCfUfUrGrArArAfUrA)", "values": [{"measurement": "cytotoxicity compared to 10F treatment, in words", "setting": "WM266-4 cells [2]", "value": "not statistically significant"}, {"measurement": "IFNβ induction compared to 10F treatment, in words", "setting": "IFNβ; IFNβ ELISA", "value": "not statistically significant"}]}
{"molecule": "Poly(U)30: 5′ppp-2′F ssRNA of 30 uridines, minimal secondary structure, SEQ ID NO: 13 (UUUUUUUUUUUUUUUUUUUUUUUUUUUUUU; 5'-triphosphate, 2'-fluoro modifications; Synthetic RNA Aptamer Poly(U)30)", "values": [{"measurement": "growth inhibition / cytotoxicity (anti-melanoma effect), in words", "setting": "WM266-4 cells [2]; liposomal transfection, 72 h", "value": "not"}]}
{"molecule": "polyI:C", "values": [{"measurement": "stimulation of TLR3 reporter cells (SEAP)", "setting": "human TLR3", "value": "specifically stimulated"}, {"measurement": "stimulation of HEK-TLR7 cells to produce IL-8", "setting": "Human TLR7", "value": "not"}]}
